Source: US20260226025A1, “PHARMACEUTICALLY ACCEPTABLE SALT AND CRYSTAL FORM OF TRIAZOLE COMPOUND, AND PREPARATION METHOD THEREFOR” (JIANGSU HENGRUI PHARMACEUTICALS CO., LTD., priority 2023, published 2026)

Biological target: T1, hLPAR1 (human lysophosphatidic acid receptor 1) (Homo sapiens, UniProt Q92633)
T1 construct: host or cells: CHO-K1 (CHO-K1/LPA1R, cultured under hygromycin B selection)
Experiment: FLIPR antagonist property test: LPA-induced intracellular calcium elevation in CHO-K1/LPA1R cells
Assay type: cell-based
Conditions: hLPAR1 expressed in CHO-K1 cells, LPA at EC80, read-out: LPAR1 IC50
Method: The antagonist properties of a compound of the present disclosure were assessed using the FLIPR (fluorometric imaging plate reader) method. The compound is an inhibitor of intracellular calcium elevation induced by activation of hLPAR1 (human lysophosphatidic acid receptor 1) expressed in CHO-K1 cells (Chinese hamster ovary K1 cells, HDB). • 1. Experimental reagents and instrument consumables
• 2. Reagent preparation • 2.1. Reaction buffer: HBSS+20 mM HEPES+0.1% fatty acid-free BSA+0.001% F-127 • 2.2. 50× Red dye: (a red dye for blocking background signals in cells) prepared by: weighing out 4 g of tartrazine and 10.2 g of acid red and dissolving them in 100 mL of H2O. • 2.3. Fluo-8 staining mixture: 4 mL of reaction buffer, 32 μL of fluo-8, 320 μL of 50× Red dye, and 40 μL of probenecid. • 3. Compound preparation • 3.1. […] When the cells became round, the digestion was stopped with culture medium F-12 (10% FBS), and the cells were counted. […] An FLIPR was correspondingly programmed, the 6×LPA gradient solutions were added, and readings were taken. […] A reaction curve was obtained from the numerical values of LPA, and the concentration of LPA at EC80 was calculated. […] An FLIPR was correspondingly programmed, the 6×LPA solution was added, and readings were taken. […] Finally, the output fluorescence counts were analyzed, and the IC50 of the compound was calculated. • 5. […]

T1 sequence (Q92633 whole entry): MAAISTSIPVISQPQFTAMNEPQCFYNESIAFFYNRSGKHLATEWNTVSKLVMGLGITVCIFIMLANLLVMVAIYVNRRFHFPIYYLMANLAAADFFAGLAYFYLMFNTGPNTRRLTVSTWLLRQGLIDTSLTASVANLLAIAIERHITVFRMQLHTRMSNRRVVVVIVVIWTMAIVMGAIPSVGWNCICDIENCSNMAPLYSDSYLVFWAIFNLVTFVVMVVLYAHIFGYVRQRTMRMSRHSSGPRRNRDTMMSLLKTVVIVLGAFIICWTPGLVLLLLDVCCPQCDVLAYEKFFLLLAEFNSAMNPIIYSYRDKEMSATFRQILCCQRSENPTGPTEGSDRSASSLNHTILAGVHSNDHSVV

COCc1ccnc(OCc2c(-c3ccc(O[C@H]4C[C@@H]5CC[C@H](C(=O)O)[C@@H]5C4)c(C)n3)nnn2C)n1 [Compound 1-P1, (1S,3aS,5S,6aR)-5-((6-(5-(((4-(methoxymethyl)pyrimidin-2-yl)oxy)methyl)-1-methyl-1H-1,2,3-triazol-4-yl)-2-methylpyridin-3-yl)oxy) octahydropentalene-1-carboxylic acid]
IC50: 8.7 nM
